Reference: PubChem BioAssay AID179 (DTP/NCI, 2004)
pEC50, pIC50: −log10 of the molar value. Activity calls are given as the source filed them.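 How the source made its calls: active means compounds giving half or more protection of infected cells from virus-caused growth loss, again on retest; inactive means the rest.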 Where a SMILES comes first, the peptide text is derived from it. The star is where a group is joined. X9 = CC(=O)NC1C(N*)OC(CO)C(O)C1O

Tested on: CEM cells HIV-1 protection, formazan growth assay
Test: NCI AIDS Antiviral Assay
Settings: for pIC50: measured here: growth of uninfected CEM cells
In short: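 CEM (human) cells, HIV-1 infected vs uninfected, 5-point dosing, formazan growth read-out. Retest threshold 50% protection.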

Compound | outcome | pEC50 | pIC50
O=C1C(=O)N(C(=O)c2ccc(Cl)c(Cl)c2)c2ccc(Cl)cc21 | inactive | – | –
C=C1CN(S(=O)(=O)c2ccc(C)cc2)CCCN(C(=O)OC(C)C)CCCN(S(=O)(=O)c2ccc(C)cc2)C1 | – | < 3.70 | 4.85
CCOC(=O)c1cc(-c2ccc(OC)cc2)c([N+](=O)[O-])[nH]1 | – | < 3.70 | 4.59
CCCCOC(=O)C(NC(C(=O)OCCCC)c1cc(C(C)(C)C)c(O)c(C(C)(C)C)c1)c1cc(C(C)(C)C)c(O)c(C(C)(C)C)c1 (stereo not drawn) | – | < 3.70 | < 3.70
CN(C)/N=C1\C=C2CC[C@H](O[Si](C)(C)C(C)(C)C)[C@@]2(C)CC1 | – | < 3.70 | 4.91
Cc1ccc(C2=C(c3ccccc3)C(Br)(c3ccc(C)cc3)C(c3ccccc3)=C2c2ccc(C)cc2)cc1 | – | < 5.60 | < 5.60
CCOC(=O)c1c(C)[nH]c(=S)c(C#N)c1-c1ccco1 | – | < 3.70 | 4.09
[Au+].c1c[n-]cn1.c1ccc([PH+](c2ccccc2)c2ccccc2)cc1 | – | < 4.86 | 5.20
Cc1cc2c(c(C=Nc3ccccc3O)c1)OC1(C=C2)Oc2ccccc2C(=O)N1C (stereo not drawn) | – | < 3.70 | 4.60
CC(=O)Nc1ccc(-c2nnc(SCC(=O)Nc3cccc(Cl)c3)o2)cc1 | – | < 4.33 | 5.12
CCCCNCCC(SSSC(CCNCCCC)c1ccc(Cl)cc1)c1ccc(Cl)cc1 (stereo not drawn) | – | < 3.70 | 5.46
O=c1[nH]c(O)c(/C=N/C(=S)N=Nc2c(O)[nH]c3ccccc23)c(=O)[nH]1 | – | < 3.70 | < 3.70
N#Cc1nc(Cc2cccs2)oc1N | – | < 3.70 | < 3.70
Cc1cccc(N(CC(=O)O)S(=O)(=O)c2ccccc2)c1 | inactive | – | –
CC1(C)COC2(C)N(c3ccccc3)C(=O)ON12 (stereo not drawn) | – | < 3.70 | < 3.70
CCN(CC)C(=S)SS(=O)(=O)c1ccccc1C(=O)O | – | < 3.70 | 3.95
COC(=O)[C@@H]1CCCCC[C@H]2C(CO)=C(C)C(=O)C12 (stereo partly drawn) | – | < 3.70 | < 3.70
CCCOC(=O)CCC(NC(=O)c1ccc(Nc2nc3ccccc3nc2-c2cccs2)cc1)C(=O)OCCC (stereo not drawn) | – | < 5.31 | < 5.31
Cc1ccc(N=Nc2ccc(O)c(CN(C)C)c2)cc1 | – | < 3.70 | 4.66
CCC(C)C(NC(=O)CNC(=O)C(Cc1c[nH]cn1)NC(=O)C(NC(=O)C(CS)NC(=O)C(CCC(N)=O)NC(=O)C(NC(=O)C(NC(=O)C(CO)NC(=O)C(NC(=O)C(CC(=O)NC1OC(CO)C(O)C(O)C1NC(C)=O)NC(=O)C(NC(=O)C(CS)NC(=O)C1CCCN1C(=O)CNC(=O)C(NC(=O)CN)C(C)O)C(C)O)C(C)C)C(C)O)C(C)C)C(C)O)C(=O)NC(CCCNC(=N)N)C(N)=O (stereo not drawn) (H-GTGPCTD(X9)VSTVQCTHGIR-NH2; configuration not given here) | – | < 4.30 | < 4.30
CC(C)(C)OC(=O)NNC(=O)C1Cc2ccccc2OC1=O (stereo not drawn) | – | < 3.70 | < 3.70
Nc1cnn(C2OC(CO)C(F)C2F)c(=O)n1 (stereo not drawn) | – | < 3.44 | < 3.44
Oc1ccc(C2Oc3cc(OC4OCC(O)C(O)C4O)cc(O)c3CC2O)cc1O (stereo not drawn) | – | < 3.70 | < 3.70
O=C(O)CCNCCCCNCCC(=O)O | – | < 3.09 | < 3.09
C=CCP(c1ccccc1)c1ccccc1 | – | 7.20 | < 3.70
O=C1C2c3[nH]c4ccccc4c3C3CCC(c4ccccc4)CC3C2C(=O)N1c1ccccc1 (stereo not drawn) | inactive | – | –
ClCCCC1COc2ccccc2O1 (stereo not drawn) | – | < 3.70 | < 3.70

Compound | outcome | pEC50 | pIC50
NNC(=O)c1ccc(-n2nnc(C(=O)NN)c2C(=O)NN)cc1 | – | < 3.30 | < 3.30
N#Cc1nc(-c2cc([N+](=O)[O-])cc([N+](=O)[O-])c2)oc1N | – | < 4.00 | < 4.00
O=C(Nc1nc2ncn(CC(COc3ccccc3)OC(=O)c3ccccc3)c2c(=O)[nH]1)c1ccccc1 (stereo not drawn) | – | < 4.15 | < 4.15
O=C(O)[C@@H]1C2C3CC4C2C4C3[C@@H]1C(=O)O | inactive | – | –
CN1CCc2ccccc2C(C(=O)c2ccc3c(c2)OCO3)C1=O (stereo not drawn) | – | < 3.81 | 3.97
O=[N+]([O-])c1ccc(NC(c2ccccc2)P(=O)(Oc2ccccc2)Oc2ccccc2)cc1 (stereo not drawn) | – | < 5.23 | < 5.23
CC1OC(OC2C(CO)OC(O[C@H]3CC[C@@]4(C)C(=CC[C@H]5[C@@H]6C[C@@H]7O[C@@]8(CC[C@H](C)CN8)[C@@H](C)[C@@H]7[C@@]6(C)CC[C@@H]54)C3)C(OC3OC(C)C(O)C(O)C3O)C2O)C(O)C(O)C1O (stereo partly drawn) | inactive | – | –
CC1=C2OCS(=O)C2C2C(=O)N(c3ccccc3)C(=O)C2C1 (stereo not drawn) | – | < 3.10 | 3.30
COC1C(OC(=O)c2ccc(C)[nH]2)C(O)C(Oc2ccc3c(O)c(NC(=O)c4c[nH]c(C(=O)Nc5c(O)c6ccc(OC7OC(C)(C)C(OC)C(OC(=O)c8ccc(C)[nH]8)C7O)c(C)c6oc5=O)c4C)c(=O)oc3c2C)OC1(C)C (stereo not drawn) | – | < 4.55 | 5.13
COC(=O)[C@@H]1C=C[C@H](OC2OC(COC(C)=O)C(OC(C)=O)C(OC(C)=O)C2OC(C)=O)n2c(=O)c3ccccc3c(=O)n21 (stereo partly drawn) | – | < 3.70 | 4.97
N#C/C(=C\c1cccc2ccccc12)c1ccc(Cl)cc1 | – | < 3.70 | 4.02
COC(=O)C1(C)CCCC2(C)C1CCC1(O)C(O)C(C(C)C)=CCC21 (stereo not drawn) | – | < 3.70 | 4.25
CO/C=N/c1cn2c(n1)CN=C2 | – | < 3.70 | < 3.70
c1ccc2[nH]c(C3=NCCN3)nc2c1 | – | < 4.27 | < 4.27
Cc1cc(O)c2c(c1)C(=O)C=CC2=O | inactive | – | –
CNc1c2cccc(C)c2nc2c(C(=O)NCCN(C)C)cccc12 | – | < 6.70 | 7.72
O=C(NNC(c1ccccc1)C(F)(F)F)c1ccncc1 (stereo not drawn) | – | < 3.70 | < 3.70
CC(=O)NNc1nc(C)c(C(=O)/C=C/c2ccc(/C=C/C(=O)c3sc(NNC(C)=O)nc3C)cc2)s1 | – | < 4.31 | < 4.31
CC(=O)Nc1ccc(-c2nnc(SCC(=O)Nc3ccc(Cl)cc3)o2)cc1 | – | < 4.05 | 5.30
CCCCCCCCCCCCCCCC(=O)OCC1OC(OC)C(NC(=O)N(CCCl)N=O)C(O)C1O (stereo not drawn) | – | < 4.48 | 5.16
N#CC(C(=S)Nc1ccccc1)=C1Nc2ccccc2N1 | – | < 3.70 | < 3.70
O=C(O)c1ccc(CI)cc1 | – | < 3.70 | 4.61
O=C(N/N=C/c1ccccc1S(=O)(=O)O)C(=O)N/N=C/c1ccccc1S(=O)(=O)O | – | < 3.70 | < 3.70
Cc1ccc(C23c4ccccc4CCN2C(=O)C3N)cc1 (stereo not drawn) | – | < 3.22 | 3.93
Nc1ccc2ncc(Nc3ccc(Cl)c(Cl)c3)nc2c1 | – | < 5.05 | < 5.05
CCOC(=O)c1ccc(N=Cc2ccc(N(CCC#N)S(=O)(=O)c3ccccc3)cc2C)cc1 | – | < 4.12 | < 4.12
CCOC(=O)c1c(C)c(=O)cnc2c(C#N)cnn12 | – | < 3.94 | < 3.94

Compound | outcome | pEC50 | pIC50
COCN1COCN(COC)C1=O | – | < 3.19 | < 3.19
N#C/C(=C\c1ccc(O)c(O)c1)C(=O)Nc1ccc(C(=O)O)cc1 | – | < 3.70 | 4.41
O=C(CC(=O)c1cccc([N+](=O)[O-])c1)C(=O)Nc1ccccc1 | – | < 3.38 | < 3.38
C[Si](C)(C)C#C/C(CO)=C(/C#C[Si](C)(C)C)CO | – | < 4.47 | < 4.47
O=C(O)CC[C@@]1(C(=O)O)NC(C(=O)O)Cc2[nH]cnc21 (stereo partly drawn) | – | < 3.36 | < 3.36
COc1ccc(C(=O)c2ccccc2)c(O)c1 | – | < 3.70 | < 3.70
CC(=O)OC1=C(CC2CCCC2=O)C(=O)CC1 (stereo not drawn) | inactive | – | –
CCOC(=O)c1cn2c3c(cccc3c1=O)CC2 | – | < 3.88 | < 3.88
CC1OC(OC2CC(O)(C(=O)CO)Cc3c(O)c4c(c(O)c32)C(=O)c2ccccc2C4=O)CC(N)C1O (stereo not drawn) | – | < 6.70 | 7.20
CCN(CC)c1ccc2cc(-c3nc4ccccc4n3C)c(=O)oc2c1 | – | < 5.12 | 6.36
Cc1ccccc1N=Nc1c(S(=O)(=O)O)cc2cc(NC(=O)Nc3ccc4c(O)c(N=Nc5ccc6cc(S(=O)(=O)O)ccc6c5)c(S(=O)(=O)O)cc4c3)ccc2c1O | active | – | –
CC(C)CNC1=NCC(C)S1 (stereo not drawn) | – | < 3.70 | < 3.70
CC1(C)N([O-])[N+](=O)C1(C)O (stereo not drawn) | – | < 3.70 | < 3.70
Nc1ccc([As](=O)(O)O)cc1C(=O)O | – | < 3.70 | < 3.70
ON1CCc2c([nH]c3ccccc23)C1c1ccc(Cl)cc1 (stereo not drawn) | inactive | – | –
CCN(CC)CC(O)CNc1c2ccc([N+](=O)[O-])cc2nc2cc(OC)c(OC)cc12 (stereo not drawn) | inactive | – | –
CCOc1ccccc1NC(=O)C(=O)C(C(=O)c1ccc2ccccc2c1)C1OC(=O)c2ccccc21 (stereo not drawn) | – | < 4.14 | 4.50
COc1ccc2c(c1)c(=O)c1c(NCCNCCO)ccc3c(=O)n(CCN(C)C)c(=O)n2c31 | – | < 7.37 | 7.47
C[N+](C)(C)CC(=O)NC(=O)N/N=C\C(CC#N)CN(Cc1ccccc1)Cc1ccccc1 (stereo not drawn) | – | < 4.13 | < 4.13
COc1c(-c2ccc3c(c2)OCO3)oc2cc3c(c(OC)c2c1=O)OCO3 | – | < 3.70 | < 3.70
O=C1/C(=C\c2ccccc2)c2ccccc2N1/N=C\c1ccccc1 | – | < 4.51 | < 4.51
CC(=O)OCC1OC(n2c(N)c(C#N)c(-c3ccccc3)c(C#N)c2=S)C(OC(C)=O)C(OC(C)=O)C1OC(C)=O (stereo not drawn) | – | < 3.70 | < 3.70
CC(O)C(NC(=O)C(CCCCN)NC(=O)C(CC(=O)O)NC(=O)C(N)Cc1ccccc1)C(=O)NC(CO)C(=O)NC(CC(N)=O)C(=O)NC(CO)C(=O)N1CCCC1C(=O)NC(Cc1ccc(O)cc1)C(=O)NC(Cc1cnc[nH]1)C(=O)NC(Cc1ccccc1)C(=O)O (stereo not drawn) (H-FDKTSNSPYHF-OH; configuration not given here) | – | < 4.33 | < 4.33
CC(=O)Nc1nc(Cl)cc(NCC2(CO)CCC2)n1 | – | < 3.70 | < 3.70
Cc1ccc2[nH]c3[nH]c(=S)[nH]c(=O)c3c2c1 | – | 4.65 | 3.79
